Each structure is given as a SMILES string. Counter-ions that a name gives are not always drawn.

Data set [1] relates to the same receptor sites as do the opiates. To be noted: cited from earlier work.
The conditions of data set [2]: antagonized by naloxone; cited from earlier work.
The target in the next data set is δ opioid receptors (Rattus norvegicus, UniProt P33533). The data set is described as follows: Opiate Binding Assay, displacement of 3[H]-DSLET from δ opioid receptors (rat forebrain membranes).
The next data set has as its target μ opioid receptors (Rattus norvegicus, UniProt P33535). The data set is described as follows: Opiate Binding Assay, displacement of 3[H]-DAMPGO from μ opioid receptors (rat forebrain membranes).
The next data set has as its system mice. Put plainly: Writhing Assay (phenylbenzoquinone-induced writhing, analgesia, s.c.). It counts as in vivo, mouse. To be noted: for relative potency in the Writhing Assay: among compounds of the invention tested; for Number of Animals out of 10 Exhibiting Analgesia: subcutaneous, 5 mpk, PBQ, mice. The source says: The "Writhing Assay" is one of the most widely-used experimental procedures for measuring the analgesic activity of different narcotic and nonnarcotic analgesic agents, and involves the continuous, chemically-induced pain of visceral origin to an animal, such as a mouse or rat. [Gyires et al., Arch. int. Pharmacodyn, 267, 131-140 (1984); C. Vander Wende et al., Fed. Proc., 15, 494 (1956); Koster et al., Fed. Proc., 18, 412 (1959); and Witken et al., J. Pharmacol. Exp. Ther., 153,400-408 (1961).] Chemicals which may be used to induce this pain include phenylbenzoquinone (PBQ) and acetic acid. As a result of the chemical irritation to the animal, a characteristic stretching and writhing of the animal (dorsiflexion of the animal's back, extension of its hindlimbs and the strong contraction of its abdominal musculature) will generally occur. […] Drugs which reduce the number of writhes of the animal appear to restore the normal nociceptive threshold of the animal.
This assay was conducted generally in the manner described by R. I. Taber, "Predictive Value of Analgesic Assays in Mice and Rats," Advances in Biochemical Psychopharmacology, 8, 191 (1974).
Two hundred CD Charles River mice, weighing 20 to 30 grams, were used in this assay.
Twenty-five minutes after subcutaneous administration to the mice of 10 mg per kilogram (mpk) of body weight of a tyrosyl diamine amide compound of the invention (hereinafter "test compound"), 0.1 mL per 10 g of body weight of a 0.025% w/v solution of phenylbenzoquinone (PBQ) was injected intraperitoneally into each mouse. Some mice were given saline in place of a test compound, and were used as a control group.
Five minutes later, each mouse was individually placed into a glass beaker for observation, and the number of writhes occurring during the following ten-minute period was counted.
A compound was considered to be "active" (to have produced analgesia in a mouse) if, after the administration of 10 mg per kilogram (mpk) of body weight of the compound to the mouse, the number of writhes elicited by a mouse injected with PBQ was equal to, or less than, one-half the median number of writhes recorded for the saline-treated control group of mice that day, as described by R. I. Taber, supra.
The standard initial screening dose of a test compound employed in this assay was 10 mpk […]. […] (The slopes of the dose-response curves for the compounds analyzed were compared as described by Tallarida and Murray, Manual of Pharmacologic Calculations, Page 11 (Springer Verlag, New York, 1981)).
On the technique in general: Writhing tests count abdominal constrictions after an irritant is injected.

The conditions of data set [3]: extended use; cited from earlier work.

Chain of δ opioid receptors (P33533 whole entry): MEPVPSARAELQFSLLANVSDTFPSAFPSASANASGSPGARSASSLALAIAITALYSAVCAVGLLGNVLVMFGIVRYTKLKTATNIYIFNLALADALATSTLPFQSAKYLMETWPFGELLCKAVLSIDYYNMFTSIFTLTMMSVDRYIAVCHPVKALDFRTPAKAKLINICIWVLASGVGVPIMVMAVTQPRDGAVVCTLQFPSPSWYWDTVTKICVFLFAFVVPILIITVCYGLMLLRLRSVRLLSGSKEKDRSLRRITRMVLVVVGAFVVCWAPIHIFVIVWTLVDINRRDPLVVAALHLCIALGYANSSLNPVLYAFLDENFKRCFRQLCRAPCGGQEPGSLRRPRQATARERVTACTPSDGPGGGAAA
Chain of μ opioid receptors (P33535 whole entry): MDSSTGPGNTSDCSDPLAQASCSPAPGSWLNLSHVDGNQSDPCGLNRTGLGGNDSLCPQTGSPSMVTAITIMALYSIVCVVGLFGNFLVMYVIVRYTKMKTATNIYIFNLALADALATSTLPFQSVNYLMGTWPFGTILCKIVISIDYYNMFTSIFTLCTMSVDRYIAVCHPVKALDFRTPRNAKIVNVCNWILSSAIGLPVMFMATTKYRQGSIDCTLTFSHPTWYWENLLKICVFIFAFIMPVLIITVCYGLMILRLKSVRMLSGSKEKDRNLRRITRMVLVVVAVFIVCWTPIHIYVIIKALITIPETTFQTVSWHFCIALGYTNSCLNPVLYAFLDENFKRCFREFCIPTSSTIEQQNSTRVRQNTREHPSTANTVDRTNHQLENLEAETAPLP

In the case of `CSCC[C@H](NC(=O)[C@H](Cc1ccccc1)NC(=O)CNC(=O)CNC(=O)[C@@H](N)Cc1ccc(O)cc1)C(=O)O` [methionine enkephalin, H2 N-Tyr-Gly-Gly-Phe-Met-OH], in data set [1], the “binding to the same receptor sites as do the opiates” value is recorded as “bind to the same receptor sites as do the opiates”. The morphine-like actions result in data set [2] is on record as “exhibit some weak morphine-like actions”.

For orientation: IC50 means the concentration that gives 50% inhibition. For `Cc1cc(O)cc(C)c1C[C@H](N)C(=O)NC(C)(C)CNC(=O)c1cnc2ccccc2c1` [Example 8, N-[2-[[2S-amino-3-(4-hydroxy-2,6-dimethylphenyl)-1-oxopropyl]amino]-2-methylpropyl]-3-quinolinecarboxamide, hydrochloride], the IC50 at δ opioid receptors is 25 nM; on μ opioid receptors it was less than 10 nM.

For `Cc1cc(O)cc(C)c1C[C@H](N)C(=O)NC(C)(C)CNC(=O)c1ccc2ccccc2n1` [Example 6, N-[2-[[2S-amino-3-(4-hydroxy-2,6-dimethylphenyl)-1-oxopropyl]amino]-2-methylpropyl]-2-quinolinecarboxamide, hydrochloride], the “relative potency in the Writhing Assay” value in the data set with mice was “the most potent compounds of the invention tested in the Writhing Assay”. Further, the “Number of Animals out of 10 Exhibiting Analgesia” value with mice is listed as 10/10. Moreover, the IC50 on δ opioid receptors was 3.5 nM; at μ opioid receptors it was 1.3 nM.

Take `Cc1cc(O)cc(C)c1C[C@H](N)C(=O)NCC(C)(C)NC(=O)NCc1ccccc1` [Example 11, αS-amino-4-hydroxy-2,6-dimethyl-N-[2-methyl-2-[[[(phenylmethyl)amino]carbonyl]amino]propyl]benzenepropanamide, hydrochloride]: the IC50 on δ opioid receptors worked out at 32.8 nM; at μ opioid receptors, 58.6 nM.

With `Cc1cc(O)cc(C)c1C[C@H](N)C(=O)NC(C)(C)CNC(=O)OCc1ccccc1` [Example 3, Phenylmethyl[2-[[2S-amino-3-(4-hydroxy-2,6-dimethylphenyl)-1-oxopropyl]amino]-2-methylpropyl]carbamate, monohydrochloride], the IC50 on δ opioid receptors stood at 10 nM; at μ opioid receptors, 62 nM.

Take `Cc1cc(O)cc(C)c1C[C@H](N)C(=O)NCC(C)(C)NC(=O)CCc1ccccc1` [Example 14, αS-Amino-4-hydroxy-2,6-dimethyl-N-[2-methyl-2-[(1-oxo-3-phenylpropyl)amino]propyl]benzenepropanamide, hydrochloride]: the IC50 on δ opioid receptors amounted to 66.3 nM; on μ opioid receptors it was 26.3 nM.

For the compound `Cc1cc(O)cc(C)c1C[C@H](N)C(=O)NC(C)(C)CNC(=O)NCc1ccccc1` [Example 10, αS-amino-N-[1,1-dimethyl-2-[[[(phenylmethyl)amino]carbonyl]amino]ethyl]-4-hydroxy.2,6-dimethylbenzenepropanamide, hydrochloride], the IC50 on δ opioid receptors was 23.1 nM; on μ opioid receptors it was less than 10 nM.

For `Cc1cc(O)cc(C)c1C[C@H](N)C(=O)NC(C)(C)CNC(=O)CCc1ccccc1` [Example 13, αS-amino-N-[1,1-dimethyl-2-[(1-oxo-3-phenylpropyl)amino]ethyl]-4-hydroxy-2,6-dimethylbenzenepropanamide, hydrochloride], in the data set with mice, the “relative potency in the Writhing Assay” value is listed as “the most potent compounds of the invention tested in the Writhing Assay” and the “Number of Animals out of 10 Exhibiting Analgesia” value is 10/10. Further, at δ opioid receptors, the IC50 is 5.5 nM. On μ opioid receptors, this compound registered an IC50 of less than 10 nM.

As to `CC(C)C[C@H](NC(=O)[C@H](Cc1ccccc1)NC(=O)CNC(=O)CNC(=O)[C@@H](N)Cc1ccc(O)cc1)C(=O)O` [leucine enkephalin, H2 N-Tyr-Gly-Gly-Phe-Leu-OH], the “binding to the same receptor sites as do the opiates” value in data set [1] is on record as “bind to the same receptor sites as do the opiates”. The morphine-like actions entry in data set [2] is “exhibit some weak morphine-like actions”.

Consider `Cc1cc(O)cc(C)c1C[C@H](N)C(=O)N1CCN(Cc2ccccc2)CC1` [Example 15, 1-[2S-Amino-3-(4-hydroxy-2,6-dimethylphenyl)-1-oxopropyl]-4-(phenylmethyl)piperazine, dihydrochloride], for which the IC50 at δ opioid receptors was determined as 14.9 nM; on μ opioid receptors, 4.5 nM.

`Cc1cc(O)cc(C)c1C[C@H](N)C(=O)NC(C)(C)CNC(=O)C#Cc1ccccc1` [Example 18, S-Amino-N-[1,1-dimethyl-2-[(1-oxo-3-phenyl-2-propynyl)amino]ethyl]-4-hydroxy-2,6-dimethylbenzenepropanamide, monohydrochloride]: the IC50 at δ opioid receptors was 9.3 nM; at μ opioid receptors it was less than 10 nM.

Turning to `CC(=O)Nc1ccc(O)cc1` [acetaminophen], in data set [3], the undesirable side effects result was “liver toxicity”.

The record behind these values is US5389645A, “Substituted tyrosyl diamine amide compounds” (G. D. Searle & Co., priority 1992, dated 1995).
